# Test results reported in patent US20030232101A1, “Topical formulations of resorcinols and cannibinoids and methods of use” (Immugen Pharmaceuticals, Inc., priority 2002, published 2003).
# pIC50: −log10 of the molar value. Where two headings read alike, the source gives them in different places.
# Assays:
# Assay type in all cases: cell-based
# [1] = test system: HIV-1; assay: HeLa CD4 LTR β-gal HIV-1 attachment assay (Experimental Example 1); settings: for pIC50: Human immunodeficiency virus 1, HeLa; for β-galactosidase production relative to background (cells alone+compounds): at all times; for inhibition of HIV attachment/entry: following a 24 h pre-incubation
# [2] = test system: HIV-1 (96USHIPS7 strain); assay: HIV attachment assay in PBMCs (cell-associated p24); settings: for Comments: effect on HIV attachment / % Control / pg p24: 15 μM; for Comments: effect on HIV attachment: pretreatment 0, 2, 4, 24 h
# Protocol: ELISA kits were purchased from Coulter Electronics. The assay was performed according to the manufacturer's instructions. Control curves were generated in each assay to accurately quantitate the amount of p24 antigen in each sample. For experiments using cell lysates. Fifty thousand (5×10^4) viable cells were lysed in Coulter ELISA buffer and subjected to 1 round of freeze/thawed to liberate trapped p24 and p24 detected per manufacturers instructions. HIV capsid protein (p24) was quantitated spectrophotometrically at 450 nm using a Molecular Devices Vmax plate reader using a standard curve. Final concentrations were calculated from the optical density values using the Molecular Devices Soft Max software package.
# The attachment assay with PBMCs was performed as follows. Briefly, 1×10^6 PHA/IL-2 PBMCs were incubated for 0, 2, 4 and 24 hours with IMG compounds and cannabidiol in polypropylene tubes. A pre-titered amount of HIV-1 (96USHIPS7 strain, obtained from the AIDS Research and Reference Reagent Program ) was added in the presence of compound and incubated for 3 h at 37° C. After incubation the cultures were washed 3 times (400×g, 10 min, 4° C.) with media (1:25,000 dilution of input p24), the cell pellets lysed with p24 lysing buffer (Coulter) and p24 content determined by ELISA.
# PBMCs pretreated with compounds for 0, 2, 4, and 24 were incubated with cell-free HIV-1 for 3 h and the excess unbound HIV removed. The assessed the amount of HIV bound to the cell was then assessed by measuring cell-associated p24 content of total cell lysates.
# [3] = test system: HIV-1 strain RoJo; assay: PBMC time of addition assay (RT activity in supernatant at 6 days); settings: for fold regain of potency (decrease in IC50): 4 h pretreatment, after the loss at 2 h; for fold increase in IC50: 24 h pretreatment; for pIC50: Human immunodeficiency virus 1, PBMC
# Excerpt: Human peripheral blood mononuclear cells (PBMCs) from a minimum of 2 donors, that have been blasted with PHA and IL-2, were counted, viability determined by Trypan Blue dye exclusion and mixed in equal ratios. Pooled donors were used to minimize the variability observed between individual donors which results from quantitative and qualitative differences in HIV infection and overall response to the PHA and IL-2 of primary lymphocyte populations. The cells were resuspended at 1×10^6 cells /mL in RPMI 1640 without phenol red supplemented with 15% Fetal Bovine Serum (heat inactivated), 2 mM L-glutamine, 100 U/mL penicillin, 100 μg/mL streptomycin, 10 μg/mL gentamycin and IL-2 (20 U/mL, R&D Systems, Minneapolis, Minn.). Fifty microliters of cells were then distributed to the inner 60 wells of a 96 well round bottom microtiter culture plate in a standard format developed by the Infectious Disease Research department of Southern Research Institute. Each plate contains cell control wells (cells only), virus control wells (cells plus virus), and experimental wells (drug plus cells plus virus). Alternatively, cells were cultured in T25 cm^2 or T75 cm^2 tissue culture flasks at a starting density of 1×10^6 cells per ml. Serially diluted compounds were added to the microtiter plate or tissue culture flask followed by the appropriate pre-titered strain of HIV-1. For virus replication inhibition experiments the HIV-1 strain RoJo was used. This is a low passage presumable subtype B pediatric isolate with a syncytium inducing (SI) phenotype in MT-2 cells isolated by Southern Research Institute personnel. All samples were assayed in triplicate where possible with an accompanying determination of compound toxicity. The final volume per well in the microtiter plates was 200 μL. The final volume in the tissue culture flask varied depending upon experimental design and flask size. Assays were incubated for 6 days in a humidified atmosphere at 37° C., 5% CO^2, after which supernatants were collected, for analysis of RT activity and cell viability by MTS dye reduction. Culture were also examined microscopically, any abnormalities noted, and in the case of tissue culture flasks cell counts and viability determined by Trypan Blue Dye exclusion.
# Time of addition assays were performed with PBMCs in two ways. For both assays, PBMCs were isolated and cultured under the conditions as described above. Time of addition assays were carried out in either a tissue culture flask format (T-75 cm^2) or in microtiter wells. In both cases due to the lack of plastic adherence and heterogeneity of the PBMC population for susceptibility to infection, it was not possible to use complete removal of virus following a timed adsorption to synchronize the infection and limit the assay to a single round of infection. Therefore, serial washing by partial removal of the media was used to reduce the concentration of virus and compound (if required) in the assay. Compound addition in relationship to antiviral activity was either assessed over a short addition interval immediately before or after virus addition or for up to 72 h post infection. For all assays virus replication was assessed at 6 days of culture by determining RT expression in cell-free supernatants. In the tissue culture flask format cells were counted and Trypan Blue Dye exclusion used to monitor compound cytotoxicity. Cell viability in the 96 well microtiter plate format was determined by MTS dye reduction. AZT was used as a positive control.
# Reverse transcriptase activity was measured in cell-free supernatants. Tritiated thymidine triphosphate (NEN) (TTP) was resuspended in distilled H2O at 5 Ci/mL. Poly rA and oligo dT were prepared as a stock solution which was kept at −20° C. The RT reaction buffer was prepared fresh on a daily basis and consists of 125 μL 1.0 M EGTA, 125 μL dH2O, 110 μL 10% SDS, 50 μL 1.0 M Tris (pH 7.4), 50 μL 1.0 M DTT, and 40 μL 1.0 M MgCl2. […]
Structure (SMILES),"pIC50 ([1]; Experiment 1, pretreat 0 h)","pIC50 ([1]; Experiment 1, pretreat 4 h)","pIC50 ([1]; Experiment 1, pretreat 24 h)","pIC50 ([1]; Experiment 2, pretreat 0 h)","pIC50 ([1]; Experiment 2, pretreat 4 h)","pIC50 ([1]; Experiment 2, pretreat 24 h)",β-galactosidase production relative to background (cells alone+compounds) [1],inhibition of HIV attachment/entry [1],Comments: effect on HIV attachment [2],% Control ([2]; time 0 h) [%],pg p24 ([2]; time 0 h) [pg],% Control ([2]; time 2 h) [%],pg p24 ([2]; time 2 h) [pg],% Control ([2]; time 4 h) [%],pg p24 ([2]; time 4 h) [pg],% Control ([2]; time 24 h) [%],pg p24 ([2]; time 24 h) [pg],fold increase in IC50 [3],also measured
"C=C(C)[C@@H]1CCC(C)=C[C@H]1c1c(O)cc(CCCCC)cc1O [Cannabidiol, reference compound]",4.85,5.17,5.92,5.89,4.55,5.85,suppressed β-galactosidase production below background,consistent inhibition,No significant effect,82.6,317,74.5,286,90.9,349,114.3,439,fold at 4 h then a 17-,"Comment: suppression of β-galactosidase activity ([1]; pretreat 0 h): Exp. 1 suppression of β-galactosidase; Comment: suppression of β-galactosidase activity ([1]; pretreat 4 h): Suppression of β-galactosidase activity; Comment: suppression of β-galactosidase activity ([1]; pretreat 24 h): Suppression of β-galactosidase activity; virus binding relative to control ([2]; pretreated for 24 h): return to control levels of virus binding; fold loss of activity (potency) ([3]; 2 h pretreatment, listed as cannabidiol): approximately 10 fold; fold regain of potency (decrease in IC50) [3]: activity at 2 , regain 3.3-fold; fold regain of potency (decrease in IC50) ([3]; listed as cannabidiol): 3.3 fold; fold increase in IC50 ([3]; listed as cannabidiol): 17 fold; pIC50 ([3]; addition prior to infection, pre-treatment 0 h, read-out: IC50): 6.24; pIC50 ([3]; addition prior to infection, pre-treatment 2 h, read-out: IC50): 5.30; pIC50 ([3]; addition prior to infection, pre-treatment 4 h, read-out: IC50): 5.82"
"COc1cc(C(C)(C)CCCC(C)C)cc(OC)c1OC [IMG507, 1-(1,1,5-Trimethylhexyl)-3,4,5-trimethoxybenzene]",< 4.30,< 4.30,< 4.30,4.80,< 4.30,< 4.30,suppressed β-galactosidase production below background,not,no significant effect on virus attachment,83.3,320,91.4,351,76.3,293,95.8,368,approximately 2 fold,"transient suppression of virus replication at lower concentrations of compounds ([1]; observed consistently, two independent experiments): transient suppression of virus replication; Comment: transient suppression lost at lower concentrations ([1]; pretreat 0 h): Transient suppression lost with at lower; Comment: transient suppression lost at lower concentrations ([1]; pretreat 4 h): Transient suppression lost with at lower; Comment: transient suppression lost at lower concentrations ([1]; pretreat 24 h): Transient suppression t lost with at lower; pIC50 ([3]; 4 h, treatment −4 h pre): 4.40; pIC50 ([3]; 6 h, treatment 6 h post): 4.34; pIC50 ([3]; addition prior to infection, pre-treatment 0 h): 5.16; pIC50 ([3]; addition prior to infection, pre-treatment 2 h): 5.21; pIC50 ([3]; addition prior to infection, pre-treatment 4 h): 5.28; pIC50 ([3]; addition prior to infection, pre-treatment 24 h): 4.97; pIC50 ([3]; treatment at infection): 4.17"
